# According to patent US6596749B2, “Aminotriazole compounds” (Les Laboratoires Servier, priority 1999, dated 2003):
# Experiments:
# Y5 receptor = biological target: T1, Y5 receptor (Homo sapiens, UniProt Q15761); test: In vitro affinity for NPY receptors, [125I]-PYY competition binding, Y5 receptor; conditions: radioligand [125I]-PYY 15 to 65 pM
# T1 sequence (Q15761 1-445): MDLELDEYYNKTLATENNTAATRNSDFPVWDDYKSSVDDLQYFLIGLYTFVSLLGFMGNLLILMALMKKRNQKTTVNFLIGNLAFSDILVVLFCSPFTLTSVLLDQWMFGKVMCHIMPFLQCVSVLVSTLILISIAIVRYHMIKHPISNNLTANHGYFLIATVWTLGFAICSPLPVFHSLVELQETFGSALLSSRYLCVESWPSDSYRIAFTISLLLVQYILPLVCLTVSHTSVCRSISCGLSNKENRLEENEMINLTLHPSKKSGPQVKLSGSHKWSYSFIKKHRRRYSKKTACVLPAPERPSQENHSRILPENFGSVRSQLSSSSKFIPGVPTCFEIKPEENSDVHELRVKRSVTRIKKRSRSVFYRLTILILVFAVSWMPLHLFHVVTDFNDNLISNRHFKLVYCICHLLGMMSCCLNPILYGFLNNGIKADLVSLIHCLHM
# Protocol: The capacity of the compounds of the invention to bind to NPY receptors was measured on various cell lines, each expressing one of the receptor sub-types studied. Competition binding experiments were carried out using the peptide [^125I]-PYY as radioligand at concentrations ranging from 15 to 65 pM. The non-specific fraction is measured in the presence of a concentration of 1 μM NPY. The cells are incubated for a period ranging from 1 to 2 hours depending upon the lines, and the radioactivity is collected after filtration over a GF/C filter treated with 0.1% PEI, before being measured.
# obese ob/ob mouse = test: Effect on food intake and weight development in the obese mouse; assay type: in vivo; conditions: female ob/ob C57B1/6J mice; for Food intake % variation (D1), Treated: D1, compared with the basal food intake; for Body weight % variation (D4/D0): between first and last day of treatment
# Protocol: The compounds of the invention were administered in vivo to the obese ob/ob mouse in order to evaluate their influence on food intake and weight development. The animals used are 13- to 18-week-old female ob/ob C57B1/6J mice. They are divided into groups each comprising 4 animals per cage, the cages being fitted with a grating floor, and the mice having free access to food.
# Before the experiments, the animals are conditioned for a period ranging from 2 to 3 weeks until their food consumption has stabilised. The experiments may be summarised as follows:
# The test compounds are dissolved, immediately before use, in water, 0.9% sodium chloride, propylene glycol or dimethyl sulphoxide, depending upon their solubility, and are administered intraperitoneally (IP), in a volume of 2.5 ml/kg.
# The parameters measured are the food intake and the body weight.
# The results are expressed as: […]
# percentage variation in food intake under treatment compared with the basal food intake;
# percentage variation in body weight between the first and last day of treatment.
IC50 (Y5 receptor) [nM],Structure (SMILES),"Food intake % variation (D1), Treated (obese ob/ob mouse; 5 mg/kg IP twice daily) [%]",Body weight % variation (D4/D0) (obese ob/ob mouse; 5 mg/kg IP twice daily) [%],"Food intake % variation (D1), Treated (obese ob/ob mouse; 1 mg/kg IP twice daily) [%]",Body weight % variation (D4/D0) (obese ob/ob mouse; 1 mg/kg IP twice daily) [%]
7,COc1ccc(S(=O)(=O)NNC(=O)c2ccc(Nc3nc(-c4ccccc4)n(-c4cccc(C(F)(F)F)c4)n3)cc2)cc1 [Example 6],−34,−11.2,,
80,"O=C(NNS(=O)(=O)c1ccccc1)c1ccc(Nc2nc(-c3ccccc3)n(-c3cccc(C(F)(F)F)c3)n2)cc1 [Example 1, N′-[4-({5-Phenyl-1-[3-(trifluoromethyl)phenyl]-1H-1,2,4-triazol-3-yl}-amino)benzoyl]benzenesulphonohydrazide]",,,−45,−6.4
